Data from paper PMC12072186, “A Novel Small Molecule Enhances Stable Dopamine Delivery to the Brain in Models of Parkinson’s Disease” (International Journal of Molecular Sciences, 2025).
Read-outs that look alike come from different tables or passages of the source.

How the values were obtained:
[1] = Pharmacokinetics after single i.p. injection, serum and brain (UHPLC-MS/MS); format: in vivo, mouse; details: for Kp: intraperitoneal; for half-life / AUC(0-inf): ip
TgA53T mice [2] = experiment: Elevated plus maze test in TgA53T mice; format: in vivo, mouse; details: 50 mg/kg i.p., vs DMSO
[3] = system: MPTP-treated C57BL/6 mice; experiment: Rotarod test in MPTP-treated mice; format: in vivo, mouse; details: MPTP 25 mg/kg i.p. day 1–5; treatment day 1–13; vs MPTP vehicle control
Method: MPTP was injected to male C57BL/6 mice for 5 consecutive days (Figure 4A) to destroy DA neurons, and then the mice were treated with Pegasus alone or Pegasus + Benserazide compared to L-dopa alone or L-Dopa + Benserazide.
From day 1 to day 5, MPTP was administered to all the groups except Naive at a dose of 25 mg/kg, i.p., QD. Treatment with Pegasus alone (50 mg/kg, i.p., BID), a combination of Pegasus 50 mg/kg, BID + Benserazide 10 mg/kg, QD, or a combination of L-Dopa 10 mg/kg, QD + Benserazide 10 mg/kg, QD or standalone L-Dopa 10 mg/kg, QD, started on day 1 and continued until day 13. On day 13, after the first dose of Pegasus, 4 animals/time point from each group were sacrificed at 0.5, 1, 3, 6, and 12 h, and the blood and brains were collected.
The mice were placed on an accelerating Rotarod (Columbus Instruments, Columbus, OH, USA) equipped with individual timers for each mouse. […] The mice were trained for 3 consecutive days before the final measurement.

[4] = Plasma binding by equilibrium dialysis; format: in vitro ADME; details: mouse, rat, dog, and human plasma
Excerpt: Many of the metabolites were formed after the amide cleavage of the parent, Pegasus, into the tetracycline or the DA scaffold and further biotransformation of those scaffolds. […] Both M8 and M11 are abundantly detected in the brain and the blood in rats and the relative abundance of brain–plasma is 318 and 131%, respectively. […] Furthermore, Pegasus is […] bound to mouse, rat, dog, and human plasma (Avg. 91–98%) using the equilibrium dialysis method.

[5] = In vivo metabolism, metabolite profiling in rat brain and plasma (LC-MS/MS)
Method: In vivo metabolism: We performed a metabolism study (Figure 2) in male Sprague Dawley rats (6–8 weeks old) after a single i.p. injection of 50 mg/kg Pegasus. Plasma and brain samples were serially collected and assessed for the presence of possible phase-I and phase-II metabolites. […] The relative abundance of Pegasus and its metabolites in the brain and plasma was determined at the ionization parameters of the parent.
Metabolite profiling was performed in rat brain and plasma samples to detect phase-I and phase-II metabolites in male Sprague Dawley rats (6–8 weeks old, n = 6) injected (i.p.) with 50 mg/kg Pegasus. The formulation vehicle of Pegasus was 5% DMSO + 35% polyethylene glycol (PEG) 400 + 60% normal saline, and this formulation was used to measure the plasma and brain concentrations of Pegasus and all other metabolites. All samples obtained after Pegasus dosing in rats by the i.p. route of administration were used for metabolite profiling and compared to normal saline. Blood (n = 16 samples) was collected via retro-orbital plexus puncture 0.25, 1, 4, 6, 8, and 24 h pre-dose, and brain sampling was 1, 4, and 24 h post-dose (n = 6 per group). The brain samples were cleaned and perfused, then washed with PBS. The brains (approximately 1.5 g) were transferred to a 50 mL centrifuge tube and 36 mL of ice-cold PBS was added. The mixture was homogenized for about 1–2 min to obtain a uniform suspension. The precipitate was allowed to settle for 30 min at 4 °C, and 15 mL of the middle layer was collected. The plasma and brain samples were processed by the protein precipitation method. In total, 175 μL of acetonitrile was added to 25 μL of plasma samples. The samples were mixed, followed by centrifugation at 4000 rpm for 20 min. The supernatant from the samples was subjected to LC-MS/MS analysis.
The samples were analyzed by liquid chromatography tandem mass spectrometry (HPLC: LC series, Shimadzu, Chiyoda-ku, Tokyo, Japan; mass spectrometer: API4000 Triple Quad mass spectrometer, Applied Biosystems, Carlsbad, CA, USA). The samples (n = 6) were processed using protein precipitation and 1 mM stock solution, prepared in DMSO, spiked into acetonitrile to a final concentration of 4 µM, and processed using liquid chromatography tandem mass spectrometry, employing a linear gradient method using MH+/MH−(Q1) and product ion (MS/MS) scans. The evaluation of the Pegasus metabolites included demethylation, de-hydroxylation, amide cleavage, oxidation, de-hydrogenation, glucuronidation, sulfation, glutathione conjugation, and several other possibilities. The relative abundance of Pegasus and its metabolites in the brain and plasma was determined at the ionization parameters of the parent.

[6] = system: tyrosine hydroxylase (TH+)-positive neurons; experiment: Tyrosine hydroxylase immunohistochemistry (DAB staining); format: in vivo, mouse; details: vs DMSO
Method: To further examine whether Pegasus has any effects on DA-producing neurons, we performed immunohistochemistry to visualize tyrosine hydroxylase (TH+)-positive neurons in both the SN and striatum in Pegasus-treated versus untreated mice. TH is a rate-limiting enzyme in the biosynthesis of DA in the brain. We used DAB staining to highlight the TH+ neurons.
Animals were deeply anesthetized with a mixture of Xylazine and Ketamine (8:80 mg/kg), washed with normal saline for 1 min, and then perfused with 4% paraformaldehyde (PFA) for 15 min. The brains were dissected out and immediately stored in 4% PFA for 24 h at 4 °C, and then transferred to 30% sucrose at 4 °C for 48 h. The brains were cut using a cryostat microtome into 20 µm thick coronal sections and stored at −20 °C. Staining for tyrosine hydroxylase (TH) was probed with anti-tyrosine hydroxylase antibody (Cat No: AB152, Sigma-Aldrich, St. Louis, MO, USA). GFAP (glial fibrillary acidic protein) was stained with anti-GFAP monoclonal antibody (Cat No:MS1376P1, Fisher Scientific, Newington, NH, USA). […] TH^+ cells were counted in a stereology-like manner across multiple visual fields (typically 20 fields) in a single animal, and the same procedure was repeated on several animals to obtain the best approximation of TH staining.

human alpha-synuclein = experiment: Human alpha-synuclein ELISA of brain lysates; format: in vivo, mouse; details: brain lysates of old (11–12-month-old) TgA53T mice, vs DMSO
Method: The concentration of CNS alpha-synuclein via ELISA was reduced in the brain lysates of old (11–12-month-old) TgA53T mice treated with Pegasus compared to DMSO-treated controls (Figure 5I).
The levels of DA and its metabolite HVA were measured using a commercially available ELISA (Cat No. MBS269234 and Cat# MBS1601074, MyBiosource, San Diego, CA, USA) on serum and brain tissue soluble extracts. Human alpha-synuclein was measured via a human-specific ELISA (Cat# 448607, BioLegend, San Diego, CA, USA) according to the manufacturer’s protocol.

TgA53T mice [7] = experiment: Tolerated dose, dose escalation study; format: in vivo
Method: Pegasus synthesis and the D5 control derivative of tetracycline were previously described. Pegasus is a 652.2 Da small molecule that consists of one DA conjugated to tetracycline via a molecular linker (Figure 1A). […] We determined a tolerated dose of Pegasus in young (6–7 months old) and old (11–12 months old) TgA53T mice (IP, once daily) treated with an ascending dose of Pegasus of 10 mg/kg, 50 mg/kg, and 75 mg/kg for 4 consecutive days (Figure 1B). Pegasus was tolerated up to 75 mg/kg without visible adverse effects. […] We then reduced the dose to 75 mg/kg for another week.
Tissue toxicity was assessed in young (6–7-month-old) and old (12–13-month-old) A53T mice. The mice received daily i.p. escalating doses of Pegasus or control D5 (tetracycline derivative with no DA) vs. DMSO of 10, 25, 50, and 100 mg/kg for 4 days with each dose up to 16 days, and tissues were analyzed via caspase-3 activity. The caspase-3 activity assay (EnzChek® Invitrogen, Waltham, MA, USA) was conducted according to manufacturer’s protocols as we previously described.

alpha-synuclein = system: alpha-synuclein; set-up: method as in PMID 38991155; details: cited from earlier work
[8] = 50 mg/kg Pegasus i.p., Sprague Dawley rats

SMILES: C[C@H]1c2ccc(NC(=O)CCC(=O)NCCc3ccc(O)c(O)c3)c(O)c2C(=O)C2=C(O)[C@]3(O)C(=O)C(C(N)=O)=C(O)CC3[C@@H](O)C21 (stereo partly drawn) [Pegasus]
- Kp ([1]; C57BL/6 (mouse), Sprague Dawley (rat), mouse and rat brain, read-out: Share of Pegasus detected in the brain): < 0.01
- half-life ([1]; both sexes, C57BL/6, mouse, brain, 50 mg/kg, 50 mg/kg ip, read-out: Brain T1/2 (elimination) (converted)): 3.77 h
- half-life ([1]; both sexes, C57BL/6, mouse, brain, 100 mg/kg, 100 mg/kg ip, read-out: Brain T1/2 (elimination) (converted)): 1.82 h
- AUC(0-inf) ([1]; both sexes, C57BL/6, mouse, brain, 100 mg/kg, across 50 and 100 mg/kg i.p., read-out: AUC0-inf in the brain): 86.6 to 223 ng·h/mL
- half-life ([1]; both sexes, C57BL/6, mouse, brain, 100 mg/kg, across 50 and 100 mg/kg i.p., read-out: Elimination half time T1/2 in the brain): 1.82 to 3.77 h
- Kp ([1]; both sexes, C57BL/6, mouse, brain/serum, 50 mg/kg ip, read-out: Ratio of Brain/Serum (%)): 0.007
- Kp ([1]; both sexes, C57BL/6, mouse, brain/serum, 100 mg/kg ip, read-out: Ratio of Brain/Serum (%)): 0.006
- Kp ([1]; both sexes, C57BL/6, mouse, brain/serum, across 50 and 100 mg/kg i.p., read-out: Percentage ratio of brain/serum): 0.006 to 0.007
- Tmax ([1]; both sexes, C57BL/6, mouse, brain, 50 mg/kg ip, read-out: Brain Tmax): 2 h
- Tmax ([1]; both sexes, C57BL/6, mouse, brain, 100 mg/kg ip, read-out: Brain Tmax): 1.5 h
- AUC(0-inf) ([1]; both sexes, C57BL/6, mouse, serum, 50 mg/kg, 50 mg/kg ip, read-out: Serum AUC (0-inf)): 17200 ng·h/mL
- half-life ([1]; both sexes, C57BL/6, mouse, serum, 50 mg/kg, 50 mg/kg ip, read-out: Serum T1/2 (elimination) (converted)): 4.11 h
- AUC(0-inf) ([1]; both sexes, C57BL/6, mouse, serum, 100 mg/kg, 100 mg/kg ip, read-out: Serum AUC (0-inf)): 49100 ng·h/mL
- half-life ([1]; both sexes, C57BL/6, mouse, serum, 100 mg/kg, 100 mg/kg ip, read-out: Serum T1/2 (elimination) (converted)): 4.74 h
- AUC(0-inf) ([1]; both sexes, C57BL/6, mouse, serum, 100 mg/kg, across 50 and 100 mg/kg i.p., read-out: AUC0-inf in the serum): 17200 to 49100 ng·h/mL
- half-life ([1]; both sexes, C57BL/6, mouse, serum, 100 mg/kg, across 50 and 100 mg/kg i.p., read-out: Elimination half time T1/2 in the serum): 4.11 to 4.74 h
- Cmax ([1]; both sexes, C57BL/6, mouse, serum, 50 mg/kg ip, read-out: Serum Cmax): 7.97 µM
- Cmax ([1]; both sexes, C57BL/6, mouse, serum, 50 mg/kg ip, read-out: Serum Cmax (ng/ml)): 5190 ng/mL
- Tmax ([1]; both sexes, C57BL/6, mouse, serum, 50 mg/kg ip, read-out: Serum Tmax): 2 h
- Cmax ([1]; both sexes, C57BL/6, mouse, serum, 100 mg/kg ip, read-out: Serum Cmax): 32.7 µM
- Cmax ([1]; both sexes, C57BL/6, mouse, serum, 100 mg/kg ip, read-out: Serum Cmax (ng/ml)): 21300 ng/mL
- Tmax ([1]; both sexes, C57BL/6, mouse, serum, 100 mg/kg ip, read-out: Serum Tmax): 2.5 h
- Elevated plus maze total distance traveled (TgA53T mice [2]): significantly decreased
- Elevated plus maze total number of entries to arms (TgA53T mice [2]): significantly decreased
- Percentage of entries to open arms (TgA53T mice [2]): increased
- Percentage of time spent in open arms (TgA53T mice [2]): increased
- Latency to fall (Rotarod) [3]: significantly increased latency to fall
- Plasma binding (Avg.) [4]: 91–98%
- Observed in Rat Brain [5, 8]: not detected
- Observed in Rat Plasma [5, 8]: very small
- Kp ([5]; male, Sprague Dawley, intraperitoneal, 50 mg/kg, relative abundance brain vs plasma, rat): 0
- Cell count of TH+ neurons in the SN ([6]; young (6–7-month-old) and old (12–13-month-old) TgA53T mice): dramatically increases the cell count
- DA nerve terminals (TH+) in the striatum ([6]; young and old TgA53T mice): dramatically increases
- Concentration of CNS alpha-synuclein (ELISA) (human alpha-synuclein): reduced
- Visible side effects at 50 mg/kg (TgA53T mice [7]; 50 mg/kg, mice): no visible side effects
- Adverse effects at 100 mg/kg (TgA53T mice [7]; 100 mg/kg, male and female 12–13 months old mice): some scruffiness and weakness at Day16, and one mouse showed gut toxicity at autopsy
- Tolerated dose (TgA53T mice [7]; TgA53T, mouse, in vivo, ip, 4 days per dose level): up to 75 mg/kg
- Adverse effects at autopsy after dose reduction (TgA53T mice [7]; dose reduced to 75 mg/kg for another week): no adverse effects were detected
- Protective effect on alpha-synuclein in vitro (alpha-synuclein): prevention of alpha-synuclein misfolding
